This is an account of results in ChEMBL document CHEMBL6109155, “Discovery of Phenylacylpiperidine as Novel sEH Inhibitors through Scaffold Hopping of Natural Stilbene” (J Med Chem, 2025).

The test system of series [1] is Rattus norvegicus. Put plainly: Anti-inflammatory activity in Sprague-Dawley rat model of CFA-induced rheumatoid arthritis assessed as improvement in food intake at 10 mg/kg, po administered daily measured for 19 days. It is filed as functional, organism-based. As to conditions: time 19.0 day.
Another series has as its system Mus musculus. Briefly: Anti-inflammatory activity in BALB/c mouse model of carrageenan-induced paw edema assessed as inhibition of paw swelling at 1 mg/kg, po measured up to 6 hrs relative to control. It counts as functional. (In general: In the carrageenan paw model, swelling and tenderness develop within hours.)
The nature of series [2]: AUC (0 to 24 hrs) in Sprague-Dawley rat at 5 mg/kg, iv measured for 24 hrs. It counts as ADME, organism-based. The following applies: in vivo.
Series [3] in a line: Ratio of AUC (0 to 24 hrs) in brain to plasma in C57BL/6J mouse at 20 mg/kg, po measured for 24 hrs. It is filed as ADME, organism-based. As to conditions: brain and plasma, read-out: Ratio AUC.
Series [4] has as its system Rattus norvegicus. Briefly: Anti-inflammatory activity in Sprague-Dawley rat model of CFA-induced rheumatoid arthritis assessed as BV value at 10 mg/kg, po administered daily measured after 19 days by micro-CT analysis (reference value: 37.091 mm3). It counts as functional. As to conditions: time 19 day.
Series [5] is described as follows: Half life in Sprague-Dawley rat at 5 mg/kg, iv measured for 24 hrs. It counts as ADME, organism-based. As to conditions: in vivo.

Molecules are shown by their SMILES. Calls of active or inactive are those of the source.

Turning to `COc1cc(CC(=O)N2CCC(NC(=O)NCc3ccc(OC(F)(F)F)cc3)CC2)cc(OC)c1`, the result in the series with Rattus norvegicus [1] was Active. For the same compound, in the series on Mus musculus, the inhibition in vivo – broadly, the relative decrease from the control value, in per cent – at 1 mg/kg was found to be 34%. For the same compound, the AUC(0-t) (usually the area under the concentration-time curve up to a stated or last time point) at 24 h in series [2] stood at 2190 ng·h/mL. Moreover, in series [3], the Kp at 24 h was 0.02. Moreover, the Activity in the series with Rattus norvegicus [4] was found to be 36.234 mm3. Moreover, the half-life (usually the time needed for the level to fall by half in the phase considered) in series [5] is 25.2 min.
